# Assay results from patent US20090170923A1, “HCV INHIBITORS” (priority 2004, published 2009).
# Structures can show the parent of a compound that is named as a salt.
# Tested on: HCV genotype 1b strain Con1 replicon (ET replicon line, Huh7 cells)
# Assay: HCV ET replicon luciferase assay
# Format: cell-based
# Conditions: Hepatitis C virus, Huh-7; Huh7 cells stably transfected with HCV genotype 1b Con1 replicon; firefly luciferase readout; 72 hours incubation
# Protocol: Compounds of the current invention are believed useful in the treatment and/or prophylaxis of conditions and diseases associated with HcV infection. Activity mediated through HCV was determined using an ET replicon line.
# The Materials used include a Medium comprised of DMEM (IX liquid, high glucose); Invitrogen cat #11965-092; 100× Penicillin/Streptomycin solution (10,000 Units/mL); Invitrogen cat #15140-122; 100× Non-essential amino acid solution (10 mM); Invitrogen cat #11140-050; Fetal bovine serum; JRH Biosciences cat #12107-500M; Geneticin (50 mg/mL); Invitrogen cat #10131-035
# The Luciferase assay reagents include Steady-Glo Luciferase assay system, cat # E2550 (Promega)
# The ET replicon line (see Lohmann et al. (1999), Replication of subgenomic hepatitis C virus RNAs in a hepatoma cell line. Science 285: 110-113; Krieger et al. (2001), Enhancement of hepatitis C virus RNA replication by cell culture-adaptive mutations. J. Virol. 75: 4614-4624; and Vrolijk et al. (2003), A replicon-based bioassay for the measurement of interferons in patients with chronic hepatitis C. J. Virol. Meth. 110: 201-209, each herein incorporated by reference with regard to the ET replicon line), includes Huh7 cells stably transfected with HCV genotype 1b strain Con1 replicon. This replicon expresses the firefly luciferase, has the coding region for ubiquitin inserted upstream of the neomycin gene, and carries three cell culture-adaptive mutations that enhance RNA replication cooperatively (E1202G, T1280I, and S2197P). The ET cell line was obtained under licence from: ReBLikon GmbH, Nach dem alten Schloss 22, 55239 Gau-Odernheim, Germany. […]
# Cells are grown to approximately 80% confluency and trypsinised as described above. Cells are counted in a Levy Hemocytometer and diluted to 20,000 cells/ml in DMEM containing 10% FBS, 1× penicillin/streptomycin, 1×NEAAs. […]
# 245 μL cell suspension is added to the first 11 columns of the daughter plates prepared as above using a Multidrop dispenser (Titertek). […] The twelfth column of each plate is used to generate background readings for the assay. […]
row,SMILES,IC50
1,"Brc1ccc2[nH]c3c(c2c1)CCC[C@H]3NC1Cc2ccccc2C1 [Example 27, (1R)-6-Bromo-N-(2,3-dihydro-1H-inden-2-yl)-2,3,4,9-tetrahydro-1H-carbazol-1-amine hydrochloride salt]",54 nM
2,"C[C@@H](N[C@@H]1CCCc2c1[nH]c1ccc(Br)cc21)c1ccccc1 [Example 31, (1R)-6-bromo-N-[(1R)-1-phenylethyl]-2,3,4,9-tetrahydro-1H-carbazol-1-amine Hydrochloride Salt]",13 nM
3,"C[C@H](N[C@@H]1CCCc2c1[nH]c1ccc(Br)cc21)c1ccccc1 [Example 36, (1R)-6-Bromo-N-[(1S)-1-phenylethyl]-2,3,4,9-tetrahydro-1H-carbazol-1-amine Hydrochloride Salt]",8 nM
